Test results reported in US20110045001A1, “Transfection results of non-viral gene delivery systems by influencing of the innate immune system” (Biontex Laboratories GmbH, priority 2008, published 2011).
Several values for one entry are separate records, joined by “and”; a condition that tells them apart may be missing. Equal entries are not always repeated. Where two headings read alike, the source gives them in different places.

Experiments:
[1] = test system: HeLa-Luc cells; test: Luciferase assay after siRNA transfection in the presence of TLR7/8 agonists (Example 9); type: cell-based, human; details: imiquimod 0.25 μg/ml final concentration (row A, column 1) + anti-luciferase-siRNA/Metafectene Pro; 48 hours
Procedure: (§1) The cells are to be plated out at a cell count of 2×10^4 cells/cm^2 per well of 250 μl of complete medium.
(§2) First of all, the first 5 wells of the first three rows of a 48-well plate are each filled with 30 μl of PBS.
(§3) The stock solution of anti-luciferase-siRNA and the non-specific-control-siRNA is adjusted to a concentration of 1 pmol/10 μl with PBS. Then 10 μl of the working solution of the anti-luciferase-siRNA are pipetted into each of the first three wells of the first three rows of the 48-well plate. 10 μl of the working solution of the non-specific-control-siRNA are pipetted into each fourth well.
(§4) The Metafectene Pro reagent is diluted 1:300 with PBS. 20 μl of that dilution are introduced into each well containing siRNA.
(§5) The lipoplexes are then incubated for 20 minutes at room temperature. Then 250 μl of cell suspension are added to each well.
(§6) Two different agonists are added to the first 2 columns of the two 48-well plates, with three different working concentrations of the agonists being used. The agonists are in lyophilised form. They are dissolved with endotoxin-free water to form stock solutions having the concentration 100 μg/ml. The stock solutions are each diluted 1:10 with water to give working solutions.
Of the imiquimod working solution, 0.78 μl (=0.25 μg/ml final concentration) are pipetted into A1, 15.5 μl (=5 μg/ml) into A2 and 31 μl (=10 μg/ml) into A3. […]

[2] = test system: HeLa-Luc cells; test: Vitality determination with trypan blue after siRNA transfection in the presence of TLR7/8 agonists (Example 9); details: 48 hours
Procedure: as §1, §2, §3, §4, §5
as §6, with “solutions. […]” for “solutions.”
After the addition of the agonists, the two 48-well plates are incubated in a CO2 incubator for 48 hours.
After an incubation period of 48 hours, the cells of a plate are trypsinised and, using a Neubauer counting chamber, vitality measurement is carried out for each well with trypan blue.

[3] = test system: HeLa-Luc cells; test: Luciferase assay after anti-luciferase-siRNA transfection in the presence of kinase inhibitors (Example 8); details: anti-luciferase-siRNA 1 pMol/well, Metafectene Pro
[4] = test system: HeLa cells; details: transfection repeated on 3rd day, pre-incubation 2 hours, development time 10 min
Procedure: 1st day: HeLa cells are sown in a 48-well plate, the cells being plated out at a cell count of 0.8*10^5 cells per well of 250 μl of complete medium (10% FCS). […] 1 mg of inhibitor is dissolved in 100 μl of DMSO (stock solution). Dilution is then carried out with PBS 1:20 (working solution). […] The lipoplexes are then prepared. […] The two solutions are then mixed and incubated for 15 min. Finally, 50 μl of the lipoplex solution are added to each well. […] Analogous to Example 1 (with half amounts)

[5] = test system: HeLa cells; test: β-Galactosidase reporter gene assay after single or repetitive transfection with antagonist (Example 4); type: cell-based, human; details: development time 10 min; for β-Galactosidase assay absorption, average value of duplicates 1&2/2: single transfection
Procedure: 1st day: Analogous to Example 3.
The antagonist is adjusted to a concentration of 0.025 μg/μl with PBS.
The lipoplexes are then prepared.
Analogously to Example 3.
Analogous to Example 1 (with half amounts)

[6] = repetitive transfection, antagonist 0.0625 μg per well
[7] = repetitive transfection, antagonist 0.125 μg per well
[8] = repetitive transfection, antagonist 0.250 μg per well
[9] = repetitive transfection, antagonist 0.375 μg per well
[10] = repetitive transfection, antagonist 0.75 μg per well

## CC(C)Cn1cnc2c(N)nc3ccccc3c21 [Imiquimod, 1-(2-methylpropyl)-1H-imidazo[4,5-c]quinoline-4-amine]
[1]
  Luciferase assay, average value of 3×3 measurements: 676 RLU/μl cell extract/sec
[2]; Imiquimod 0.5 μg/ml + anti-luciferase-siRNA/Metafectene Pro
  Vitality (trypan blue staining): 98.6%
[2]; Imiquimod 5 μg/ml + anti-luciferase-siRNA/Metafectene Pro
  Vitality (trypan blue staining): 88.7%
[2]; Imiquimod 10 μg/ml + anti-luciferase-siRNA/Metafectene Pro
  Vitality (trypan blue staining): 88.6%

## C[S+]([O-])c1ccc(-c2nc(-c3ccncc3)c(-c3ccc(F)cc3)[nH]2)cc1 (stereo not shown) [SB203580]
[3]; single transfection, SB203580 5 μM
  Luciferase assay, average value of 3×3 measurements: 693 RLU/μl ell extract/sec
[3]; single transfection, SB203580 10 μM
  Luciferase assay, average value of 3×3 measurements: 747 RLU/μl ell extract/sec
[3]; single transfection, SB203580 20 μM
  Luciferase assay, average value of 3×3 measurements: 630 RLU/μl ell extract/sec
[3]; single transfection, SB203580 30 μM
  Luciferase assay, average value of 3×3 measurements: 671 RLU/μl ell extract/sec
[3]; single transfection, SB203580 40 μM
  Luciferase assay, average value of 3×3 measurements: 669 RLU/μl ell extract/sec
[3]; transfection repeated on 3rd day, SB203580 5 μM
  Luciferase assay, average value of 3×3 measurements: 696 RLU/μl ell extract/sec
[3]; transfection repeated on 3rd day, SB203580 10 μM
  Luciferase assay, average value of 3×3 measurements: 656 RLU/μl ell extract/sec
[3]; transfection repeated on 3rd day, SB203580 20 μM
  Luciferase assay, average value of 3×3 measurements: 617 RLU/μl ell extract/sec
[3]; transfection repeated on 3rd day, SB203580 30 μM
  Luciferase assay, average value of 3×3 measurements: 587 RLU/μl ell extract/sec
[3]; transfection repeated on 3rd day, SB203580 40 μM
  Luciferase assay, average value of 3×3 measurements: 610 RLU/μl ell extract/sec

## N#CC(=C(/N)Sc1ccccc1N)/C(C#N)=C(/N)Sc1ccccc1N [U0126, 1,4-diamino-2,3-dicyano-1,4-bis(o-aminophenylmercapto)butadiene]
[4]; inhibitor 5 μM (well E)
  β-Galactosidase assay absorption, average value of 3 measurements: 0.72
[4]; inhibitor 10 μM (well D)
  β-Galactosidase assay absorption, average value of 3 measurements: 0.92
[4]; inhibitor 25 μM (well C)
  β-Galactosidase assay absorption, average value of 3 measurements: 0.79
[4]; inhibitor 50 μM (well B)
  β-Galactosidase assay absorption, average value of 3 measurements: 0.90
[4]; inhibitor 75 μM (well A)
  β-Galactosidase assay absorption, average value of 3 measurements: 0.97
[3]; single transfection, U0126 75 μM
  Luciferase assay, average value of 3×3 measurements: 260 RLU/μl ell extract/sec

## Human Interleukin-1 Receptor Antagonist (IL1-ra Human): Human interleukin-1 receptor antagonist, Biomol, Cat. No. 54592
[5]; [6]
  β-Galactosidase assay absorption, average value of 3 measurements: 0.791 and 1.021
  β-Galactosidase assay absorption, average value of duplicates 3&4/2: 0.906
[5]; [7]
  β-Galactosidase assay absorption, average value of 3 measurements: 0.856 and 1.185
  β-Galactosidase assay absorption, average value of duplicates 3&4/2: 1.020
[5]; [8]
  β-Galactosidase assay absorption, average value of 3 measurements: 1.035 and 1.026
  β-Galactosidase assay absorption, average value of duplicates 3&4/2: 1.030
[5]; [9]
  β-Galactosidase assay absorption, average value of 3 measurements: 1.076 and 1.081
  β-Galactosidase assay absorption, average value of duplicates 3&4/2: 1.078
[5]; [10]
  β-Galactosidase assay absorption, average value of 3 measurements: 1.161 and 1.207
  β-Galactosidase assay absorption, average value of duplicates 3&4/2: 1.184
[5]; single transfection (columns 1, 2), antagonist 0.0625 μg per well, pre-incubation 7 hours
  β-Galactosidase assay absorption, average value of 3 measurements: 0.427 and 0.448
[5]; single transfection (columns 1, 2), antagonist 0.125 μg per well, pre-incubation 7 hours
  β-Galactosidase assay absorption, average value of 3 measurements: 0.415 and 0.435
[5]; single transfection (columns 1, 2), antagonist 0.250 μg per well, pre-incubation 7 hours
  β-Galactosidase assay absorption, average value of 3 measurements: 0.393 and 0.439
[5]; single transfection (columns 1, 2), antagonist 0.375 μg per well, pre-incubation 7 hours
  β-Galactosidase assay absorption, average value of 3 measurements: 0.392 and 0.460
[5]; single transfection (columns 1, 2), antagonist 0.75 μg per well, pre-incubation 7 hours
  β-Galactosidase assay absorption, average value of 3 measurements: 0.443 and 0.455
[5]; antagonist 0.0625 μg per well
  β-Galactosidase assay absorption, average value of duplicates 1&2/2: 0.437
[5]; antagonist 0.125 μg per well
  β-Galactosidase assay absorption, average value of duplicates 1&2/2: 0.425
[5]; antagonist 0.250 μg per well
  β-Galactosidase assay absorption, average value of duplicates 1&2/2: 0.416
[5]; antagonist 0.375 μg per well
  β-Galactosidase assay absorption, average value of duplicates 1&2/2: 0.426
[5]; antagonist 0.75 μg per well
  β-Galactosidase assay absorption, average value of duplicates 1&2/2: 0.449
